Residues, ends and D or L forms follow the SMILES beside them.
Legend:
[1] = Stability of self-assembled peptide nanoparticles determined by DLS; assay type: physicochemical; settings: for particle stability compared to FF and YF constructs: function of residue at X4, data not shown; for particle stability / time particles stable before disaggregation: DLS; for time particles stable before disaggregation: formed in cold deionized water
Experimental: (§1) The self-assembled peptide nanoparticles formed (e.g., from FF or YF peptides) in cold water (cold deionized water) as shown in Example 2 were stable for about 2 hours before they eventually disaggregated as determined by DLS. To increase the stability of FF and YF, a solvent injection protocol was used. That is, the peptide constructs were dissolved in an organic solvent (e.g., but not limited to, DMSO, acetone, ethanol, dioxane, acetonitrile, methanol, and THF) at ˜150 mg/ml and a fixed volume was then injected in cold saline solution (e.g., but not limited to, ˜0.9% NaCl) while stirring. Different concentrations and/or types of salts could be used to prepare the saline solution, depending on the solubility of the peptide constructs in the respective solution. In some embodiments, any buffer solution such as PBS, acetate, succinate and citrate buffer could be used instead. The resulting particles size varied with peptide concentration from about 5 mg/ml to about 50 mg/ml with low polydispersities (FIGS. 4A-4B). By addition of 0.9% NaCl in the cold solution, the stability of the particles was increased from about 2 h to about 24 h as determined by DLS. […] Thus, in one embodiment, the average size of the nanoparticles can be controlled by simply varying the temperature of the formulation buffere, e.g., at room temperature or under cold ˜2-4° C. conditions.
In some embodiments, the nanoparticles can be formed by a process, which comprises dissolving an isolated peptide described herein (e.g., example peptides shown in Tables 1-2) in organic solvents such as DMSO at high concentration (e.g., about 400 mg/mL) and injecting a fixed volume of the dissolved peptides in cold saline (e.g., ˜0.9% sodium chloride solution) while stirring. The cold precipitation method (e.g., using a cold saline medium) can more efficiently induce peptide self-assembly. In some embodiments, the cold precipitation method (e.g., using a cold saline medium) can improve particle stability, e.g., from about 2 hours (e.g., when particles were formed by simply mixing the isolated peptides at a specified temperature) to about 24 hours (where the particles were formed by cold saline precipitation method described herein).
To further improve stability of nanoparticles, stability of the resulting particles was investigated as a function of amino acid residue at the X4 position as indicated in Table 1 (entry 3-7) and X4 position as indicated in FIG. 1. […] For example, as shown in FIG. 4E and FIG. 5, the particles self-assembled from the YF peptides or Y peptides can be stable for at least about 120 hours or longer when formed in the formulation buffer (e.g., ˜0.9% NaCl), e.g., using the cold precipitation method described earlier. Without wishing to be bound by theory, this increase in stability is likely, in part, due to the tyrosine residue at position X4 that can be stabilized by the free amine at the N-terminus.

[2] = Cell viability (CellTiter-Blue) of cells cultured with peptides / peptide nanoparticles; assay type: cell-based; settings: mouse, murine breast cancer cells (4T1 and M6 cells); after at least about 24 hours or longer in culture; data not shown; read-out: viable cells
Experimental: The viability of cells incubated with various concentrations of peptide constructs and/or resulting peptide nanoparticles were evaluated.
To assess effects of the peptides and/or peptide nanostructures described herein on cell viability, cells were grown to confluence in gelatin 96-well plates, following which they were either left untreated or treated with blank or one or more embodiments of the peptide nanoparticles (˜25 mg/ml) for about 18 hours. CellTiter-Blue® reagent was then added to each well and, following 4 hour incubation at ˜37° C., the fluorescence signal was measured using a fluorescence multiwell plate reader (Victor3™, PerkinElmer, Mass., USA). All fluorescent intensity measurements were then normalized with respect to the untreated 4T1 mouse mammary carcinoma cells.

[3] = Dynamic light scattering (DLS) size distribution of self-assembled peptide nanoparticles; assay type: physicochemical; settings: for average hydrodynamic diameter / polydispersity index (PDI): DLS
Source text: Self-assembling peptides (e.g., FF and YF peptides as shown in Table 1 and FIG. 1, each with a sequence of 10 amino acids in length) were each prepared by FMOC solid-phase peptide synthesis, for example, on Wang resin and cleaved from the resin with a solution mixture of trifluoroacetic acid/triisopropylsilane/water in a volume ratio of […]. The synthesized peptides were then purified by reversed phase HPLC. These peptide constructs were selected to represent bulky aliphatic and aromatic amino acid residues. […] The peptide concentration of the resulting mixture was about 2.5 mg/mL to about 100 mg/mL. The mixture was stirred at about 200 rpm to about 300 rpm for about 5 mins. The stirring speed can be varied to control size homogeneity. […] Accordingly, the size of the nanostructures can be, at least in part, controlled by the sequence of the amino acid construct.
as §1, with “That is, the peptide constructs were dissolved in an organic solvent (e.g., but not limited to, DMSO, acetone, ethanol, dioxane, acetonitrile, methanol, and THF) at ˜150 mg/ml and a fixed volume was then injected in cold saline solution (e.g., but not limited to, ˜0.9% NaCl) while stirring.” left out
Each peptide was dissolved in distilled deionized water at varying concentrations, which can, in part, control particle size. Mixtures of ˜80 mg/mL, ˜50 mg/mL, and ˜20 mg/mL peptide concentration were each stirred vigorously (e.g., using a magnetic stirrer) for about 10 mins at room temperature or at about 4° C. Nanoparticles were measured, e.g., by dynamic light scattering (DLS), to be in the range from about 50 nm to about 2 μm.
A zeta particle size analyzer (Malvern instruments, UK) operating with a HeNe laser, and a 173° back scattering detector was used to determine the size distribution of the nanoparticles. Samples were prepared at 80 mg/mL, 50 mg/mL, and 20 mg/mL in water and measured directly by dynamic light scattering measurement (n=3 per condition). Malvern instrument software or Microsoft Excel was used to analyze the acquired data.

[4] = Encapsulation of hydrophobic (Nile Red) and hydrophilic (Calcein) dyes in peptide nanoparticles; assay type: physicochemical; settings: YF ~25 mg/mL in cold saline
Experimental: Nile Red (NR) a hydrophobic dye and Calcein, hydrophilic dyes were used as model agents for hydrophobic and hydrophilic drugs or molecules, respectively. For example, YF was dissolved in DMSO to make a stock concentration of about 380 mg/mL. Stock solutions of Nile red and Calcein dyes were each prepared in DMSO at about 3 mg/ml and about 20 mg/mL, respectively. A mixture of YF (about 380 mg/ml) and at least one model agent (e.g., Nile red (0.28 mg/mL) and/or Calcein (1.8 mg/mL)) was added to a formulation buffer, e.g., cold saline (e.g., about 0.3 mL) and mixed, e.g., by manual pipetting. The final ratios of peptide to dyes were ˜25 mg/ml to ˜0.02 mg/ml (YF:NR) and ˜25 mg/mL to ˜0.124 mg/mL (YF:calcein). In some embodiments, about 20-30% of each dye was encapsulated within self-assembling YF nanoparticles.
The peptide nanostructures (e.g., peptide nanoparticles (NP)) were visualized by fluorescence microscopy using the hydrophobic dye, Nile Red, which has a strong emission at […] when present in a lipid-rich environment and excited at ˜485 nm, or the hydrophilic dyes, calcein (excitation/emission 495 nm/515 nm) and FITC-Dextran (excitation/emission 495 nm/521 nm). […] An aliquot of ˜10 μL solution was then added to a glass cover slip for visualization using fluorescence microscopy (TIRF DM1600).

[5] = Biodistribution of Alexa 750-loaded nanoparticles after tail vein injection; assay type: in vivo; settings: mice
Experimental: FIG. 11 is a line graph showing biodistribution of YF nanoparticles in mice within 2 hours after injection. An imaging dye (e.g., Alexa 750 dye) was encapsulated in the YF nanoparticles and administered to the mice by tail vein injection.
Chemical and physical properties of the resulting nanoparticles, including size, surface charge, and surface chemistry, are important factors that determine their pharmacodynamics and biodistribution, which define their efficacy to deliver an agent and toxicity. Accordingly, it was next sought to determine tissue distribution of these resulting nanoparticles. Specifically, Alexa 750 dye was encapsulated in YF nanoparticles and administered to mice by tail vein injection. At intervals of 0.5, 1.0, and 2.0 hours, the animals were euthanized, then dissected. […] These nanoparticles can potentially eliminate the need for expensive spraying approach in aerosol delivery.

[6] = formed in cold saline, FIG. 4E, FIG. 5
[7] = formed in cold saline (~0.9% NaCl), solvent injection, FF ~50 mg/mL, YF ~5 mg/mL
[8] = formed in cold saline, FF ~50 mg/mL, YF ~5 mg/mL
[9] = self-assembled in cold deionized water

Compound: VPGWGVPGFG [WF]
- particle stability compared to FF and YF constructs [1]: did not show a significant increase in stability

Compound: VPGFGVPGWG [FW]
- particle stability compared to FF and YF constructs [1]: did not show a significant increase in stability

Compound: VPGFGVPGYG [FY]
- particle stability compared to FF and YF constructs [1]: did not show a significant increase in stability

Compound: CC(C)[C@H](N)C(=O)N1CCC[C@H]1C(=O)NCC(=O)N[C@@H](Cc1ccc(O)cc1)C(=O)NCC(=O)O [Y, VPGYG] (H-VPGYG-OH)
- viability [2]: > 80%
- particle stability [1, 6]: ≥ 5 days

Compound: IPGYG
- size distribution (monodispersity) relative to other substituted peptides ([3]; DMSO stock ~380 mg/mL injected in cold saline ~2-4 °C, final ~25 mg/mL, FIG. 14): more monodisperse

Compound: VPGFGVPGFG [FF]
- average hydrodynamic diameter [3, 7]: ~191 nm
- polydispersity index (PDI) [3, 8]: 0.18
- polydispersity index (PDI) [3, 9]: 0.27
- time particles stable before disaggregation [1]: about 2 hours
- particle stability ([1]; formed in cold saline (~0.9% NaCl), cold precipitation method): ~1 days

Compound: CC(C)[C@H](N)C(=O)N1CCC[C@H]1C(=O)NCC(=O)N[C@@H](Cc1ccc(O)cc1)C(=O)NCC(=O)N[C@H](C(=O)N1CCC[C@H]1C(=O)NCC(=O)N[C@@H](Cc1ccccc1)C(=O)NCC(=O)O)C(C)C [YF, VPGYGVPGFG] (H-VPGYGVPGFG-OH)
- viability [2]: > 80%
- average hydrodynamic diameter [3, 7]: 600 nm
- polydispersity index (PDI) [3, 8]: 0.07
- average hydrodynamic diameter [3, 9]: ~900 nm
- polydispersity index (PDI) [3, 9]: 0.33
- time particles stable before disaggregation [1]: about 2 hours
- particle stability [1, 6]: at least 5 days
- fraction of each dye encapsulated [4]: 20-30%
- tissue distribution: lungs ([5]; 0.5-2.0 hours): greater deposition of the nanoparticles in the lungs
- time high fluorescence levels detected and maintained in vivo ([5]; Alexa 750 encapsulated, FIG. 11): at least 2 hours
- tissue distribution: brain / blood-brain-barrier ([5]; fluorescence in brain): cross the blood-brain-barrier and deposit in the brain

— patent US20150218252A1, “SELF-ASSEMBLING PEPTIDES, PEPTIDE NANOSTRUCTURES AND USES THEREOF” (President and Fellows of Harvard College, priority 2012, published 2015)
